Consider 7 molecules from US20200316159A1, “SUSTAINED RELEASE COMPOSITIONS OF KAPPA-OPIOID RECEPTOR AGONIST” (JT PHARMACEUTICALS, INC., priority 2016, published 2020).

Each structure is given as a SMILES string. Non-standard residues stand in square brackets, D forms with d. Residues, ends and D or L forms follow the SMILES beside them. *: point of attachment. NH(4-picolyl) = c1cc(CN*)ccn1; dNle = CCCC[C@@H](N)C(=O)O

The target of one data set is kappa opioid receptor (Homo sapiens, UniProt P41145). The experiment in a line: Opioid receptor activation assay, DiscoveRx PathHunter Beta-Arrestin, kappa. Format: cell-based. Conditions: PathHunter Beta-Arrestin; for EC50: 3-6 repeats, read-out: 95% confidence levels of EC50, activation of kappa receptors. From the text: Opioid Receptor Activation Assay.
PathHunter™ Beta-Arrestin GPCR Functional Profiling and Screening cell lines that express the individual opioid receptors were obtained from DiscoveRx (Fremont, Calif.). These cells express the kappa (or mu or delta) opioid receptor fused to a proprietary β-galactosidase enzyme fragment and the […]-arrestin gene fused to an enzyme acceptor (the remaining fragment of β-galactosidase). Upon activation of the receptor, β-arrestin is recruited to the GPCR and the β-galactosidase is activated through enzyme complementation. Cells were grown using standard cell culture techniques and then plated at 30,000 cells/well in 90 μl in a 96 well white, clear bottom plate and incubated overnight. Dilutions were prepared in dilution buffer (HBBS, 20 mMHepes, 0.1% BSA) and 10 μl added per well. Plates were then incubated for 90 min at 37° C. in a water-saturated atmosphere. Plates were then allowed to come to room temp and DiscoveRx's proprietary developing agent added as recommended by the manufacturer. This agent contains a detergent, 6-O-β-galactopyranosyl-luciferen and luciferase. Plates were then incubated for 1 hr at room temperature before being read on a luminometer. Antagonist studies were performed in an identical manner except after the overnight incubation 10 μl media was removed and replaced with drug or naloxone at the indicated concentration. […] To calculate % maximal luminescence, background was subtracted from the experimental values and this was divided by maximal luminescence and multiplied by 100.
To confirm this, and to determine their relative activities, we assessed their efficiency using PathHunter™ Beta-Arrestin GPCR Functional Profiling and Screening cell lines from DiscoveRx (Fremont, Calif.) as described in the Materials and Methods section.

The subject of data set [1] is peripheral pain (acetic acid-induced writhing). The experiment in a line: Acetic acid-induced writhing model (Example 1). Format: in vivo, rat (male Sprague-Dawley). Conditions: oral gavage, screening dose 20 mg/kg, 20 min before i.p. 3% acetic acid; Student's t-test p<0.05. How it is done:
Acetic Acid-Induced Writhing Model.
This protocol is a well-established model of peripheral pain. Following oral or i.v. administration of compound, rats are rested for 20 min before i.p. injection with 2 ml/kg of 3% acetic acid. Animals are then rested an additional 10 min before being placed in a 10×10 inch chamber. A video of the rats is then recorded for next 20 min. The video is subsequently blindly scored by an investigator who examines each rat every 20 sec for the entire 20 min (60 individual observations). At each observation rats are scored on whether they are writhing or not. Writhing is defined as a constriction of the abdominal area, often with extension of the hind legs. At the end of the experiment the percent of the time the animal was writhing was calculated. The dose-response curves and EC50 values were generated using GraphPad Prism®.
As an initial biological screen the potential for oral availability of the 18 peptides in our library were evaluated in a well-established model of peripheral pain, the acetic acid-induced writhing assay. Rats were administered the various compounds by oral gavage at a screening dose of 20 mg/kg 20 min before i.p. injection with 2 ml/kg of 3% acetic acid. 10 min later animals were assessed for writhing as indicated in the methods section. […] Thus, several of the Arg modifications can impart CR665 with the ability to cross the gut barrier. Compounds 3, 7, 9, 11 and 17 were selected for further analysis.
A general note: Writhing tests count abdominal constrictions after an irritant is injected.

Data set [2] relates to central pain (acute thermal stimuli). The data set is described as follows: Hotplate model (Example 1). Format: in vivo, rat (male Sprague-Dawley). Conditions: morphine at 5 mg/kg. As for the experimental part:
The hotplate model evaluates central pain attenuation in a rodent after applying an acute thermal stimuli. The rat is treated with compound and assessed over time on a hotplate analgesia meter (Columbus Instruments, Columbus, Ohio), essentially a flat surface maintained at 53.0+/−0.2° C. The time until the rat lifts, nibbles or shakes one of its hind paws is recorded, which is known as the response latency. Animals remain on the hotplate no longer than 30 sec to avoid tissue damage. Experiments are scored as the percent of maximal possible effect (% MPE) calculated using the following equation: % MPE=[(post-drug latency−pre-drug latency)/(cut-off pre-drug latency)]×100%. The dose response curves and EC50 values were generated using GraphPad Prism®.
As discussed, central availability of a kappa agonist can lead to undesirable side effects. To assess the peripheral to central selectivity of compound 9 an i.v. dose response of this drug was performed in both a model of peripheral pain (A. the writhing assay) and central pain (B. the hotplate assay). The ratio of EC50s for each of these assays can then be used to determine the peripheral selectivity of the drug.

Data set [3] has the same test system. The data set is described as follows: Hot plate model (Example 2). The format is in vivo, rat. Conditions: JT compounds 20 mg/kg oral; morphine 10 mg/kg i.p. How it is done:
The hotplate model evaluates central pain attenuation in a rodent after applying an acute thermal stimuli. Experimental rats were orally gavaged with lead compounds JT07 or JT09 (20 mg/kg) and rested for 20 min prior to being placed on the hotplate. Control rats received i.p. injections of morphine (10 mg/kg) and rested for 20 min prior to be being placed on the hotplate. Rats were then assessed over time on a hotplate analgesia meter (Columbus Instruments, Columbus, Ohio), essentially a flat surface maintained at 53.0+/−0.2° C. The time until the rat lifted, nibbled, or shook one of its hind paws was recorded, which is known as the response latency. Animals remained on the hotplate no longer that 30 sec to avoid tissue damage. Experiments were scored as the percent of maximal possible effect (% MPE) calculated using the following equation: % MPE=[(post-drug latency−pre-drug latency)/(cut-off pre-drug latency)]×100%. The dose response curves and EC50 values were generated using GraphPad Prism.
As an initial screen for analgesic activity, JT07 and JT09 were evaluated in the hotplate analgesic model using a standard oral dose of 20 mg/kg. Percent maximum possible effect was analyzed for each compound and compared to morphine (10 mg/kg, i.p.).

For data set [4], the system named is sedation (distance traveled). The experiment in a line: Locomotor open field test. Conditions: JT09 20 mg/kg p.o.; morphine 10 mg/kg i.p. How it is done:
Locomotor Open Field Test.
Sedation and a loss of muscle coordination are common CNS-mediated side effects of opioids. To assess the sedative effects of JT09, rats were given JT09 (20 mg/kg, p.o.) or morphine (10 mg/kg, i.p.) 20 min before placement in an automated (68 l×21 w×21 h cm) activity chambers for a 30 min test. Morphine was used as a comparison group due to its well-known sedative effects.

Data set [5] deals with abuse liability (lever pressing for intravenous drug delivery). The experiment in a line: Self-administration model. The format is in vivo, rat. Conditions: cocaine 50 ug/50 ul bolus infusion, 7 days, after replacing JT09. From the text:
Self-Administration Model.
Addiction/dependence is a critical side effect of opioids and must be evaluated with any new member of this family. The most reliable test of abuse liability with the most translational relevance is a contingent drug self-administration model, in which rats are trained to press a lever for intravenous drug delivery. Sixteen standard self-administration chambers (30×20×20 cm, Med Associates) were housed inside sound-attenuating cubicles fitted with a fan for airflow and to mask noise. Each chamber contained two retractable levers, two stimulus lights, a speaker for tone delivery, and a house light to provide general illumination. In addition, each chamber was equipped with a balanced metal arm and spring leash attached to a swivel (Instech). Tygon® tubing extended through the leash and was connected to a 10 ml syringe mounted on an infusion pump located outside the sound-attenuating cubicle. Rats were anesthetized with i.p. injections of ketamine (66 mg/kg; Vedcolnc, St Joseph, Mo., USA), xylazine (1.3 mg/kg; Lloyd Laboratories, Shenandoah, Iowa, USA), and equithesin (0.5 ml/kg); sodium pentobarbital (4 mg/kg), chloral hydrate (17 mg/kg), and 21.3 mg/kg magnesium sulfate heptahydrate dissolved in 44% propylene glycol, 10% ethanol solution). Ketorolac (2.0 mg/kg, i.p. Sigma, St. Louis, Mo., USA) was given just prior to surgery as an analgesic. One end of a silastic catheter was inserted 33 mm into the external right jugular and secured with 4.0 silk sutures. The other end ran subcutaneously and exited from a small incision just below the scapula. This end is attached to an infusion harness (Instech Solomon, Plymouth Meeting, Pa., USA) that provides access to an external port for IV drug delivery. […]
During self-administration, rats received an IV infusion (0.1 ml) of 10 U/ml heparinized saline before each session. […] Cocaine was chosen for comparison purposes because it is readily self-administered.

kappa opioid receptor, sequence (P41145 whole entry, the tested form may be a part): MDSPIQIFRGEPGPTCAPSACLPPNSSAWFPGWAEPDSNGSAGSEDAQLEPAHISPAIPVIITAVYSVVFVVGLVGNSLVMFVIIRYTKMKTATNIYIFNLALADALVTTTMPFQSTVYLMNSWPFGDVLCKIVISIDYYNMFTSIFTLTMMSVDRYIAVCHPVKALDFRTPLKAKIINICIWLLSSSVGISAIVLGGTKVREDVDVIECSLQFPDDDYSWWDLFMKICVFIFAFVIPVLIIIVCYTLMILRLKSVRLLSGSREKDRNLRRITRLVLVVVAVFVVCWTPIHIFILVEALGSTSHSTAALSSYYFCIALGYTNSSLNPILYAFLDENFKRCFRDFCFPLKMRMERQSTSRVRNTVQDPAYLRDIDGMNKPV

The EC50 is the concentration that produces a half-maximal response. Regarding `CCCC[C@@H](NC(=O)[C@@H](Cc1ccccc1)NC(=O)[C@H](N)Cc1ccccc1)C(=O)N[C@H](CCCCNCc1ccccc1)C(=O)NCc1ccncc1` [Compound 11], at kappa opioid receptor, the “EC50, activation of kappa opioid receptor” value (shortened to “EC50, activation”) is recorded as “low nM range” and the EC50 lay in the range of 8.15 to 26.8 nM.

Turning to `CCCCNC(=N)NCCC[C@@H](NC(=O)[C@@H](CCCC)NC(=O)[C@@H](Cc1ccccc1)NC(=O)[C@H](N)Cc1ccccc1)C(=O)NCc1ccncc1` [Compound 3], at kappa opioid receptor, the “EC50, activation” value is “low nM range” and the EC50 lay in the range of 1.38 to 18.7 nM.

For the molecule `CCCC[C@@H](NC(=O)[C@@H](Cc1ccccc1)NC(=O)[C@H](N)Cc1ccccc1)C(=O)N[C@H](CCCCNC1CCCCC1)C(=O)NCc1ccncc1` [Compound 7], at kappa opioid receptor, the “EC50, activation” value is given as “low nM range” and the EC50 fell in the range of 5.63 to 13.1 nM.

For `CCCC[C@@H](NC(=O)[C@@H](Cc1ccccc1)NC(=O)[C@H](N)Cc1ccccc1)C(=O)N[C@H](CCCNC(=N)N)C(=O)NCc1ccncc1` [CR665, D-Phe-D-Phe-D-Nle-D-Arg-NH-4-Picolyl, reference compound] (H-[dF][dF][dNle][dR]-{NH(4-picolyl)}), the “effect on writhing (outward physical signs of peripheral pain) versus saline control” value in data set [1] is recorded as “did not have a significant effect”. Moreover, at kappa opioid receptor, the “EC50, activation” value is listed as “low nM range” and the EC50 lay within 9.07 to 13.1 nM.

For `CN1CC[C@]23c4c5ccc(O)c4O[C@H]2[C@@H](O)C=C[C@H]3[C@H]1C5` [morphine], the “time of maximum response in hotplate assay” value in data set [2] was determined as 15 min. Moreover, the “analgesic activity in hotplate model (% maximum possible effect)” value in data set [3] is “potent analgesic”. Further, the “sedation in locomotor test” value in data set [4] was “highly sedative”.

In the case of `CCCC[C@@H](NC(=O)[C@@H](Cc1ccccc1)NC(=O)[C@H](N)Cc1ccccc1)C(=O)N[C@H](CCC[N+](C)(C)C)C(=O)NCc1ccncc1` [Compound 17], on kappa opioid receptor, the “EC50, activation” value is recorded as “low nM range” and the half-maximal effective concentration (EC50) is 47.2 to 166 nM.

Turning to `COC(=O)[C@H]1[C@@H](OC(=O)c2ccccc2)C[C@@H]2CC[C@H]1N2C` [cocaine, reference compound], the “number of cocaine infusions (nose-poke)” value in data set [5] is “increased over the 7 days”.
